Assay results from patent US11696903B2, “Compounds and methods for scavenging dicarbonyl electrophiles” (VANDERBILT UNIVERSITY, priority 2019, dated 2023).

Assays:
[1] = test system: LG-histone adducts in RAW264.7 cells; assay: LG-lysyl adduct formation on histones in RAW264.7 cells (LC/ESI/MS/MS); type: cell-based, mouse
Experimental: FIGS. 11A, 11B, 11C, 11D, 11E, and 11F are a series of graphs showing that LG-lysine adducts of histones are found in cells and tissue, dependent on COX-2 activity. RAW264.7 mouse macrophage (A) and A549 human lung carcinoma (C) cells were stimulated to express COX-2, then given 20 μM arachidonic acid (AA) or vehicle. A subgroup of cells was preincubated 45 min with 50 μM indomethacin. As a measure of COX activity, PGE2 was determined by GC/MS from cell media prior to lysis (B and D). Nuclei were isolated, and histones were extracted and digested to individual amino acids prior to LC/EST/MS/MS analysis. *, p<0.05; ***, p<0.001 by ANOVA followed by Tukey's post-test (n≥5). (E). Histones were extracted from nuclei of rat liver, and analyzed as above for LG-lactam adduct. COX-2 protein was analyzed by Western blotting and plotted against lactam adduct levels. Each point corresponds to 1 liver, and shown is the line of regression (r^2=0.7237). Pearson r=0.8507; two-tailed p=0.0152. (F) LC-MS chromatograph of histones isolated from a rat liver with relatively high COX-2 expression (COX-2 band intensity of 117 arbitrary units).
(A). Scavengers were screened in RAW264.7 cells for the ability to decrease LG adduct formation on histones. Scavengers used were glucosamine (GA), 3-methoxysalicylamine (3-MoSA), pentylpyridoxamine (PPM), and 5-ethylsalicylamine (EtSA). Cells were stimulated to express COX-2, pretreated 45 min. with 500 μM scavenger or vehicle (H2O), and given 20 μM AA for 1 h before lysing and extracting histones. Histone proteins were analyzed by LC/ESI/MS/MS for LG-lysyl lactam adduct, n=2. (B) Stimulated A549 cells were pretreated with 30, 300, or 1000 μM EtSA prior to 1 h with 20 μM AA, and histones analyzed for LG-lysyl adduct. *, p<0.05 by one-way ANOVA followed by Dunnett's multiple comparisons post-test (n=3-5). (C). A549 cells were stimulated, pretreated 45 min. with 1000 μM EtSA or H2O vehicle, and given 20 μM AA for 1 h. Media was analyzed by GC/MS for PGE2 (n=3). There was no effect on PGE2 production at lower doses of EtSA (data not shown).
To stimulate COX-2 expression, A549 or RAW264.7 cells were treated overnight with 5 ng/mL IL-1B (A549) or 10 μg/mL LPS and 10 U/mL IFNγ (RAW264.7) in serum-free medium. When indicated, cells were pretreated with indomethacin, aldehyde scavengers (glucosamine, 3-MoSA, PPM or EtSA), or vehicle (ethanol for indomethacin, H2O for scavengers) for 45 min, and then given 20 μM arachidonic acid (AA) or DMSO vehicle for 1 h before lysing.
Cultured cells were lysed in hypotonic buffer (10 mM Tris/10 mM NaCl/3 mM MgCl2) containing 1 mM pyridoxamine and 100 μM indomethacin to prevent the artifactual formation of LGE2 during the lytic process. […] Protein concentration was determined using the method of Bradford. […]

[2] = EtHOBA concentration in the colon by LC/ESI/MS/MS; type: in vivo; conditions: 1.5 and 3.7 mg/ml, after 6 days of treatment
Experimental: FIGS. 3A and 3B show data from C57BL/6 mice were treated or not with various concentrations of EtHOBA. (A) Body weight was assessed every day. (B) After 6 days, mice were euthanized and EtHOBA was measured in the colon. n=5 mice/group.
The present inventors analyzed the effect of various concentrations of EtHOBA and its bioavailability in control mice. […] After 6 days of treatment, EtHOBA concentrations in the colon were analyzed using liquid chromatography electrospray ionization tandem mass spectrometry (LC/EST/MS/MS).

[3] = Reaction rate of scavengers with dicarbonyl electrophiles / LG relative to lysine; conditions: faster than lysine
Description: Under conditions such as inflammation and/or accumulated mutations, epithelial cells and adjacent immune cells express genes encoding enzymes involved in carcinogenesis, such as prostaglandin-endoperoxide synthase (PGHS2; COX2), NADPH oxidases, and spermine oxidase. The products of these enzymes (prostaglandins, O2D, and H2O2 plus 3-aminopropanal) lead to formation of dicarbonyl electrophiles: levuglandins (LGs), malondialdehyde (MDA), 4-oxo-nonenal (4-O NE), and acrolein. Electrophiles may lead to immune dysfunction and neoplastic risk by forming adducts with proteins and DNA11-15. However, the role of these reactive aldehydes in colon carcinogenesis is previously unknown. The present inventors have discovered that the level of LG-protein adducts is increased in the colon tissues of i) human ulcerative colitis (UC), colitis-associated carcinogenesis (CAC), and CRC; ii) mice treated with azoxymethane-dextran sulfate sodium (AOM-DSS), a model of CAC; and iii) transgenic mice with a tamoxifen-inducible disruption of Apc using the colon-specific, caudal type homeobox 2 (CDX2) Cre (CDX2P-CreERT2;Apcff), which recapitulates sporadic/genetically-driven CRC. […]

For `CCc1ccc(O)c(CN)c1` [EtHOBA, 5-ethyl-2-hydroxybenzylamine], the “potency in protecting histones from modification by levuglandins” value ([1]; in comparison with salicylamine, pyridoxamine and their other analogues) was “most potent”, the “LG adduct formation on histones” value ([1]; stimulated RAW264.7, 500 μM scavenger 45 min, 20 μM AA 1 h) was “most effectively blocked” and the “EtHOBA concentrations in the colon” value [2] was “readily detected”. For the same molecule, the “rate of reaction with dicarbonyl electrophiles” value [3] was 3 orders of magnitude.
